Laboratory results as given in patent publication US9249125B2, “Pyrazole derivatives as p38 MAP inhibitors” (RESPIVERT LIMITED, priority 2012, dated 2016).

Key:
[1] = test system: Poly I:C-induced ICAM-1 expression in BEAS2B cells; test: Poly I:C-induced ICAM-1 expression in BEAS2B cells; format: cell-based; conditions: Homo sapiens, BEAS-2B, read-out: Poly IC induced ICAM1 in BEAS2B IC50
Outline: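 Cell-based ELISA read at 450 nm minus 655 nm, divided by crystal violet OD595 to normalize for cell number, gave ICAM-1 levels. Readout was taken 18 hr after poly I:C (1 μg/mL, Oligofectamine) transfection of human bronchial BEAS2B cells pretreated 2 hr with test compound.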

d-U937 cells = test: Cell viability: MTT assay; format: cell-based, human; conditions: 1 μg/mL
Outline: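 MTT read-out (1 h, absorbance 550 nm) on d-U937 cells after pre-incubation with 1 or 10 μg/mL compound under two regimes: 4 h, 5% FCS, or 24 h, 10% FCS RPMI1640. Values are percent loss of viability relative to vehicle (0.5% DMSO), so increases are reported as negative.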

p38 MAPKα = p38 MAPKα (Homo sapiens (Human), UniProt Q16539); test: p38 MAPKα enzyme inhibition (FRET, Z-LYTE); format: biochemical
p38 MAPKα, sequence (Q16539 whole entry): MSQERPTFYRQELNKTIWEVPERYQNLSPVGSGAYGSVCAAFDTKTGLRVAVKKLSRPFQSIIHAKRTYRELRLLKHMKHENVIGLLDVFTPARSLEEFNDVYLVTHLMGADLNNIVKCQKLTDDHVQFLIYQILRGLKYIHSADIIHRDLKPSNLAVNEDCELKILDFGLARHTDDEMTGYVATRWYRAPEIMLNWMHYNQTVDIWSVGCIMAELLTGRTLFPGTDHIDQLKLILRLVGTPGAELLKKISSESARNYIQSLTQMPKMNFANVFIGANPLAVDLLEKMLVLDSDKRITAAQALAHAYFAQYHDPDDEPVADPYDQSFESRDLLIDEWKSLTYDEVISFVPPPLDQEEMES

Syk = Syk (Homo sapiens (Human), UniProt P43405); test: Syk enzyme inhibition (FRET, Z-LYTE); format: biochemical
Outline: (§1)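 Z-LYTE FRET kinase assay: enzyme (3000 or 2000 ng/mL stock, respectively) preincubated 2 h at RT with compound (4–0.004 μg/mL stocks), then FRET peptide plus ATP (800 μM stock for c-Src, 60 μM for Syk) added for 1 h. Protease development 1 h; phosphorylation from coumarin/fluorescein emission ratio.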

[2] = test system: LPS-induced IL-8 release in d-U937 cells; test: LPS-induced IL-8 release in d-U937 cells; format: cell-based; conditions: Homo sapiens, dU937, read-out: LPS Induced Release of Cytokine in d-937 Cells IL-8 IC50
Outline: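 Sandwich ELISA of culture supernatant gives TNFα and IL-8 levels after a 4 hr challenge with LPS (0.1 μg/mL, E. coli O111:B4). Before stimulation, macrophage-like U937 cells, obtained by 48–72 hr in PMA at 100 ng/mL, sit with compound for 2 hr. Relative EC50 is derived from concentration-response data.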

GSK3α = GSK3α (Homo sapiens (Human), UniProt P49840); test: GSK 3α enzyme inhibition (FRET, Z-LYTE); format: biochemical
GSK3α, sequence (P49840 whole entry): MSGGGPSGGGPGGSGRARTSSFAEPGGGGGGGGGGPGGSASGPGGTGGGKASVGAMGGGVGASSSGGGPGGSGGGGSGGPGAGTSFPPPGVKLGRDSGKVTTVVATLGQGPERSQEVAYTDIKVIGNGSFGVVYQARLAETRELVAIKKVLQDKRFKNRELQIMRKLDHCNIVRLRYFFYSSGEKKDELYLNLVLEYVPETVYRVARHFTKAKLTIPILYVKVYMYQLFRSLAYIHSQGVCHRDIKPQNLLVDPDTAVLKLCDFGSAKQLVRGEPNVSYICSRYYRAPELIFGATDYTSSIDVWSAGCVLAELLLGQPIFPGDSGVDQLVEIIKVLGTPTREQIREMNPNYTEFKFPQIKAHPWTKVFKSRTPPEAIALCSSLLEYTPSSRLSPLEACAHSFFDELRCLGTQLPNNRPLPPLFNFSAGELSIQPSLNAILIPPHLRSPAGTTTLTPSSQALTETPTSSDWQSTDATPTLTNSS
Outline: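 Phosphorylation was read as the donor (coumarin) to acceptor (fluorescein) ratio after a 1 hr protease step destroying non-phosphorylated peptide. Before this, compound (4–0.004 μg/mL stocks) sat 2 hr at RT with GSK3α (500 ng/mL stock), followed by 1 hr kinase reaction with 8 μM peptide and 40 μM ATP stocks.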

cSrc = cSrc (Homo sapiens (Human), UniProt P12931); test: c-Src enzyme inhibition (FRET, Z-LYTE); format: biochemical
cSrc, sequence (P12931 whole entry, looked up): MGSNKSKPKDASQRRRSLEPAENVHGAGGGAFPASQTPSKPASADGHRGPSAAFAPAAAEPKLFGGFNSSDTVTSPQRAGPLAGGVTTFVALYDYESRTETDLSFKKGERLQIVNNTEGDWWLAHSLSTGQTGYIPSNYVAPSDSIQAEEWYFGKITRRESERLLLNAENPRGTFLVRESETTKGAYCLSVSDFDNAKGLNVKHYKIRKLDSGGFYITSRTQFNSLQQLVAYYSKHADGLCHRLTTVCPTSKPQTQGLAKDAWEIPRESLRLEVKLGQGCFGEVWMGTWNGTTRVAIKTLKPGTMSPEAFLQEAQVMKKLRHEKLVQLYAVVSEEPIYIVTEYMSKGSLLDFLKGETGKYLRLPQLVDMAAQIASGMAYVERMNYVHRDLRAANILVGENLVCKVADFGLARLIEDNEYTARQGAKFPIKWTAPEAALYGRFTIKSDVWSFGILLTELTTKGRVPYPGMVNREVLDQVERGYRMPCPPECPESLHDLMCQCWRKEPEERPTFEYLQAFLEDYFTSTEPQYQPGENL
Outline: as §1

Row | SMILES | IC50 [1] | MTT Assay Cell viability at time point in d-U937 cells 4 h (d-U937 cells) | MTT Assay Cell viability at time point in d-U937 cells 24 h (d-U937 cells) | IC50 (p38 MAPKα) | IC50 (Syk) | IC50 [2] | IC50 (GSK3α) | IC50 (cSrc)
1 | Cc1ccc(-n2nc(C(C)(C)C)cc2NC(=O)Nc2ccc(Oc3ccnc(Nc4ccc5ncn(C)c5c4)n3)c3ccccc23)cc1 [Example 31, 1-(3-(tert-butyl)-1-(p-tolyl)-1H-pyrazol-5-yl)-3-(4-((2-((1-methyl-1H-benzo[d]imidazol-6-yl)amino)pyrimidin-4-yl)oxy)naphthalen-1-yl)urea] | 2.3 nM | −ve (−ve and +ve indicate that the value is below and above respectively, the no significant effect threshold, defined as 30% inhibition at 1 μg/mL at the time point indicated.) | −ve (−ve and +ve indicate that the value is below and above respectively, the no significant effect threshold, defined as 30% inhibition at 1 μg/mL at the time point indicated.) | 33 nM | 199 nM | 0.6 nM | 1610 nM | 6 nM
2 | Cc1ccc(-n2nc(C(C)(C)C)cc2NC(=O)Nc2ccc(Oc3ccnc(Nc4ccc5scnc5c4)n3)c3ccccc23)cc1 [Example 34, 1-(4-((2-(benzo[d]thiazol-5-ylamino)pyrimidin-4-yl)oxy)naphthalen-1-yl)-3-(3-(tert-butyl)-1-(p-tolyl)-1H-pyrazol-5-yl)urea] | 6.3 nM | −ve (−ve and +ve indicate that the value is below and above respectively, the no significant effect threshold, defined as 30% inhibition at 1 μg/mL at the time point indicated.) | −ve (−ve and +ve indicate that the value is below and above respectively, the no significant effect threshold, defined as 30% inhibition at 1 μg/mL at the time point indicated.) | 308 nM | > 1560 nM | 3.4 nM | 1620 nM | 18 nM
3 | Cc1ccc(-n2nc(C(C)(C)C)cc2NC(=O)Nc2ccc(Oc3ccnc(Nc4ccc5ncsc5c4)n3)c3ccccc23)cc1 [Example 35, 1-(4-((2-(benzo[d]thiazol-6-ylamino)pyrimidin-4-yl)oxy)naphthalen-1-yl)-3-(3-(tert-butyl)-1-(p-tolyl)-1H-pyrazol-5-yl)urea] | 2.7 nM | −ve (−ve and +ve indicate that the value is below and above respectively, the no significant effect threshold, defined as 30% inhibition at 1 μg/mL at the time point indicated.) | −ve (−ve and +ve indicate that the value is below and above respectively, the no significant effect threshold, defined as 30% inhibition at 1 μg/mL at the time point indicated.) | 439 nM | > 1560 nM | 22.2 nM | > 15600 nM | 18 nM
4 | COc1ccc(-n2nc(C(C)(C)C)cc2NC(=O)Nc2ccc(Oc3ccnc(Nc4ccc5[nH]ncc5c4)n3)c3ccccc23)cc1 [Example 40, 1-(4-((2-((1H-indazol-5-yl)amino)pyrimidin-4-yl)oxy)naphthalen-1-yl)-3-(3-(tert-butyl)-1-(4-methoxyphenyl)-1H-pyrazol-5-yl)urea] | 2.4 nM | −ve (−ve and +ve indicate that the value is below and above respectively, the no significant effect threshold, defined as 30% inhibition at 1 μg/mL at the time point indicated.) | −ve (−ve and +ve indicate that the value is below and above respectively, the no significant effect threshold, defined as 30% inhibition at 1 μg/mL at the time point indicated.) | 68 nM | 24 nM | 7.2 nM | > 15600 nM | 8 nM
5 | Cc1cc(Nc2nccc(Oc3ccc(NC(=O)Nc4cc(C(C)(C)C)nn4-c4cccc(OCCN5CCOCC5)c4)c4ccccc34)n2)cc2cn[nH]c12 [Example 56, 1-(3-(tert-butyl)-1-(3-(2-morpholinoethoxy)phenyl)-1H-pyrazol-5-yl)-3-(4-((2-((7-methyl-1H-indazol-5-yl)amino)pyrimidin-4-yl)oxy)naphthalen-1-yl)urea] | 11.9 nM | −ve (−ve and +ve indicate that the value is below and above respectively, the no significant effect threshold, defined as 30% inhibition at 1 μg/mL at the time point indicated.) | +ve (−ve and +ve indicate that the value is below and above respectively, the no significant effect threshold, defined as 30% inhibition at 1 μg/mL at the time point indicated.) | 46 nM | 3 nM | 11 nM | > 13300 nM | 2 nM
6 | Cc1cc(Nc2nccc(Oc3ccc(NC(=O)Nc4cc(C(C)(C)C)nn4-c4ccc(=O)n(CCN5CCOCC5)c4)c4ccccc34)n2)cc2cn[nH]c12 [Example 89, 1-(3-(tert-butyl)-1-(1-(2-morpholinoethyl)-6-oxo-1,6-dihydropyridin-3-yl)-1H-pyrazol-5-yl)-3-(4-((2-((7-methyl-1H-indazol-5-yl)amino)pyrimidin-4-yl)oxy)naphthalen-1-yl)urea] | 17.1 nM | −ve (−ve and +ve indicate that the value is below and above respectively, the no significant effect threshold, defined as 30% inhibition at 1 μg/mL at the time point indicated.) | +ve (−ve and +ve indicate that the value is below and above respectively, the no significant effect threshold, defined as 30% inhibition at 1 μg/mL at the time point indicated.) | 47 nM | 3 nM | 28.8 nM | 2780 nM | < 1 nM
